{
  "source": "paper PMC5218480",
  "about": "(PLoS ONE, 2017)",
  "tested_on": "MV-4-11 cells",
  "experiment": "Gene expression microarray analysis (Affymetrix PrimeView) and GSEA",
  "assay_type": "cell-based, human",
  "set-up": "RFU PODN (11730768_x_at) / Fold change /veh PODN (11730768_x_at) / RFU LINC00158 (11744669_a_at) / Fold change /veh LINC00158 (11744669_a_at) / RFU DUSP10 (11751237_a_at) / Fold change /veh DUSP10 (11751237_a_at) / RFU ID3 (11757404_x_at) / Fold change /veh ID3 (11757404_x_at) / RFU PLEKHG5 (11737974_s_at) / Fold change /veh PLEKHG5 (11737974_s_at) / RFU LRRC4B (11730491_at) / Fold change /veh LRRC4B (11730491_at) / RFU GIMAP4 (11747438_a_at) / Fold change /veh GIMAP4 (11747438_a_at) / RFU KRT8 (11758183_x_at) / Fold change /veh KRT8 (11758183_x_at) / RFU CNN1 (11734310_a_at) / Fold change /veh CNN1 (11734310_a_at) / RFU VPS37D (11726825_at) / Fold change /veh VPS37D (11726825_at) / RFU C10orf10 (11716522_x_at) / Fold change /veh C10orf10 (11716522_x_at) / RFU KIR2DL2 /// KIR2DL4 /// KIR2DL5A /// KIR2DL5B /// KIR2DS1 /// KIR2DS2 /// KIR2DS3 /// KIR2DS4 /// KIR3DL3 /// KIR3DL3 /// KIR3DS1 (11738374_at) / Fold change /veh KIR2DL2 /// KIR2DL4 /// KIR2DL5A /// KIR2DL5B /// KIR2DS1 /// KIR2DS2 /// KIR2DS3 /// KIR2DS4 /// KIR3DL3 /// KIR3DL3 /// KIR3DS1 (11738374_at) / RFU C1QL1 (11718748_at) / Fold change /veh C1QL1 (11718748_at) / RFU TMPRSS4 (11747572_a_at) / Fold change /veh TMPRSS4 (11747572_a_at) / RFU HAMP (11756126_x_at) / Fold change /veh HAMP (11756126_x_at) / RFU RNFT2 (11725882_a_at) / Fold change /veh RNFT2 (11725882_a_at) / RFU NR4A2 (11747474_a_at) / Fold change /veh NR4A2 (11747474_a_at) / RFU ABCC12 (11746883_a_at) / Fold change /veh ABCC12 (11746883_a_at) / RFU TMEM136 (11760407_x_at) / Fold change /veh TMEM136 (11760407_x_at) / RFU CLDN22 /// WWC2 (11732394_at) / Fold change /veh CLDN22 /// WWC2 (11732394_at) / RFU HLA-DPB1 (11760878_x_at) / Fold change /veh HLA-DPB1 (11760878_x_at) / RFU SPINT1 (11716480_a_at) / Fold change /veh SPINT1 (11716480_a_at) / RFU GAP43 (11754022_s_at) / Fold change /veh GAP43 (11754022_s_at) / RFU A4GNT (11735810_at) / Fold change /veh A4GNT (11735810_at) / RFU PRB3 (11715151_x_at) / Fold change /veh PRB3 (11715151_x_at) / RFU TUBB4B (11761932_at) / Fold change /veh TUBB4B (11761932_at) / RFU CAPN14 (11732068_a_at) / Fold change /veh CAPN14 (11732068_a_at) / RFU TMCC2 (11721928_a_at) / Fold change /veh TMCC2 (11721928_a_at) / RFU IRGQ (11745062_a_at) / Fold change /veh IRGQ (11745062_a_at) / RFU FAM174B (11720279_a_at) / Fold change /veh FAM174B (11720279_a_at) / RFU TMPRSS4 (11748680_a_at) / Fold change /veh TMPRSS4 (11748680_a_at) / RFU FAM212B (11763350_a_at) / Fold change /veh FAM212B (11763350_a_at) / RFU PLEKHG5 (11743358_a_at) / Fold change /veh PLEKHG5 (11743358_a_at) / RFU ZSCAN30 (11745921_a_at) / Fold change /veh ZSCAN30 (11745921_a_at) / RFU CMKLR1 (11741424_a_at) / Fold change /veh CMKLR1 (11741424_a_at) / RFU LOC101060620 /// MAPK8IP1 (11723275_at) / Fold change /veh LOC101060620 /// MAPK8IP1 (11723275_at) / RFU SPTSSB (11747773_x_at) / Fold change /veh SPTSSB (11747773_x_at) / RFU PRSS12 (11739890_at) / Fold change /veh PRSS12 (11739890_at) / RFU BIN1 (11741810_x_at) / Fold change /veh BIN1 (11741810_x_at) / RFU WNT11 (11732464_a_at) / Fold change /veh WNT11 (11732464_a_at) / RFU C10orf10 (11716521_a_at) / Fold change /veh C10orf10 (11716521_a_at) / RFU C5orf56 (11738089_at) / Fold change /veh C5orf56 (11738089_at) / RFU CYB561 (11721691_x_at) / Fold change /veh CYB561 (11721691_x_at) / RFU ANKRD19P (11752326_a_at) / Fold change /veh ANKRD19P (11752326_a_at) / RFU OR2T12 /// OR2T33 /// OR2T8 (11738714_s_at) / Fold change /veh OR2T12 /// OR2T33 /// OR2T8 (11738714_s_at) / RFU VCAN (11748164_a_at) / Fold change /veh VCAN (11748164_a_at) / RFU JSRP1 (11732532_at) / Fold change /veh JSRP1 (11732532_at) / RFU KRTAP10-11 (11738290_x_at) / Fold change /veh KRTAP10-11 (11738290_x_at) / RFU MYO3A (11730013_a_at) / Fold change /veh MYO3A (11730013_a_at) / RFU EBF3 (11725865_a_at) / Fold change /veh EBF3 (11725865_a_at) / RFU CAMK2N1 (11719241_x_at) / Fold change /veh CAMK2N1 (11719241_x_at) / RFU C5orf56 (11738088_a_at) / Fold change /veh C5orf56 (11738088_a_at) / RFU OLFML3 (11715873_a_at) / Fold change /veh OLFML3 (11715873_a_at) / RFU LOC100653217 /// NTM (11731650_a_at) / Fold change /veh LOC100653217 /// NTM (11731650_a_at) / RFU MAPK11 (11762145_a_at) / Fold change /veh MAPK11 (11762145_a_at) / RFU FIZ1 (11724087_x_at) / Fold change /veh FIZ1 (11724087_x_at) / RFU OASL (11726364_x_at) / Fold change /veh OASL (11726364_x_at) / RFU SOX15 (11748057_x_at) / Fold change /veh SOX15 (11748057_x_at) / RFU CD79A (11719716_a_at) / Fold change /veh CD79A (11719716_a_at) / RFU HIST1H1D (11736915_at) / Fold change /veh HIST1H1D (11736915_at) / RFU CASKIN2 (11723855_a_at) / Fold change /veh CASKIN2 (11723855_a_at) / RFU LOC730098 (11760151_x_at) / Fold change /veh LOC730098 (11760151_x_at) / RFU OR4N2 (11742367_at) / Fold change /veh OR4N2 (11742367_at) / RFU PRRT2 (11749266_a_at) / Fold change /veh PRRT2 (11749266_a_at) / RFU SNX32 (11753110_a_at) / Fold change /veh SNX32 (11753110_a_at) / RFU CDHR5 (11726645_a_at) / Fold change /veh CDHR5 (11726645_a_at) / RFU RCAN1 (11760418_a_at) / Fold change /veh RCAN1 (11760418_a_at) / RFU FAM167A (11723789_a_at) / Fold change /veh FAM167A (11723789_a_at) / RFU FAM26E (11764081_at) / Fold change /veh FAM26E (11764081_at) / RFU ISYNA1 (11749810_s_at) / Fold change /veh ISYNA1 (11749810_s_at) / RFU ACY1 (11761880_at) / Fold change /veh ACY1 (11761880_at) / RFU 11764098_at / Fold change /veh 11764098_at / RFU SAMD14 (11745864_x_at) / Fold change /veh SAMD14 (11745864_x_at) / RFU NPB (11741838_a_at) / Fold change /veh NPB (11741838_a_at) / RFU TMPRSS6 (11731388_a_at) / Fold change /veh TMPRSS6 (11731388_a_at) / RFU KRTAP10-2 (11738614_at) / Fold change /veh KRTAP10-2 (11738614_at) / RFU ARHGAP8 /// PRR5-ARHGAP8 (11727945_x_at) / Fold change /veh ARHGAP8 /// PRR5-ARHGAP8 (11727945_x_at) / RFU KRTAP5-7 /// NADSYN1 (11734609_at) / Fold change /veh KRTAP5-7 /// NADSYN1 (11734609_at) / RFU RASL12 (11751679_a_at) / Fold change /veh RASL12 (11751679_a_at) / RFU CDKN2B (11736163_a_at) / Fold change /veh CDKN2B (11736163_a_at) / RFU PRF1 (11729649_at) / Fold change /veh PRF1 (11729649_at) / RFU, ZNF638 /// ZNF638-IT1 / Fold change vs veh, ZNF638 /// ZNF638-IT1 / RFU, PANK3 / Fold change vs veh, PANK3 / RFU, SH3YL1 / Fold change vs veh, SH3YL1 / RFU, ZEB2 / Fold change vs veh, ZEB2 / RFU, NRIP1 / Fold change vs veh, NRIP1 / RFU, PTTG1IP / Fold change vs veh, PTTG1IP / RFU, CAPN2 / Fold change vs veh, CAPN2 / RFU, MED14 / Fold change vs veh, MED14 / RFU, SNORA58 / Fold change vs veh, SNORA58 / RFU, C1orf63 / Fold change vs veh, C1orf63 / RFU, LRRFIP1 / Fold change vs veh, LRRFIP1 / RFU, NDUFAF7 / Fold change vs veh, NDUFAF7 / RFU, SLC12A2 / Fold change vs veh, SLC12A2 / RFU, IBTK / Fold change vs veh, IBTK / RFU, ESF1 / Fold change vs veh, ESF1 / Fold change vs veh, TMEM50B / RFU, TAOK1 / Fold change vs veh, TAOK1 / RFU, ACBD3 / Fold change vs veh, ACBD3 / RFU, TMA16 / Fold change vs veh, TMA16 / RFU, RWDD3 / Fold change vs veh, RWDD3 / RFU, BCAT1 / Fold change vs veh, BCAT1 / RFU, EDEM3 / Fold change vs veh, EDEM3 / RFU, TMEM33 / Fold change vs veh, TMEM33 / RFU, WDR75 / Fold change vs veh, WDR75 / RFU, AHCTF1 / Fold change vs veh, AHCTF1 / RFU, TFRC / Fold change vs veh, TFRC / RFU, ZDHHC17 / Fold change vs veh, ZDHHC17 / RFU, NOM1 / Fold change vs veh, NOM1 / RFU, ARL8B / Fold change vs veh, ARL8B / RFU, ZBTB11 / Fold change vs veh, ZBTB11 / RFU, TAMM41 / Fold change vs veh, TAMM41 / RFU, KIAA1704 /// LOC100996395 / Fold change vs veh, KIAA1704 /// LOC100996395 / RFU, ING1 / Fold change vs veh, ING1 / RFU, TRMT61B / Fold change vs veh, TRMT61B / RFU, FUBP3 / Fold change vs veh, FUBP3 / RFU, TP53 / Fold change vs veh, TP53 / RFU, TNKS2 / Fold change vs veh, TNKS2 / RFU, ZFP14 / Fold change vs veh, ZFP14 / RFU, ACTR2 / Fold change vs veh, ACTR2 / RFU, PPP3R1 / Fold change vs veh, PPP3R1 / RFU, PIK3R1 / Fold change vs veh, PIK3R1 / RFU, HNRNPA1 / Fold change vs veh, HNRNPA1 / RFU, RNF170 / Fold change vs veh, RNF170 / RFU, ZNF28 / Fold change vs veh, ZNF28 / RFU, RNGTT / Fold change vs veh, RNGTT / RFU, OGT / Fold change vs veh, OGT / RFU, BRD1 / Fold change vs veh, BRD1 / RFU, MARS / Fold change vs veh, MARS / RFU, ZNF655 / Fold change vs veh, ZNF655 / RFU, FAHD1 / Fold change vs veh, FAHD1 / RFU, BDP1 / Fold change vs veh, BDP1 / RFU, LRRCC1 / Fold change vs veh, LRRCC1 / RFU, ARID1A / Fold change vs veh, ARID1A / RFU, ZNF146 / Fold change vs veh, ZNF146 / RFU, ZNF330 / Fold change vs veh, ZNF330 / RFU, GPN3 / Fold change vs veh, GPN3 / RFU, C9orf123 / Fold change vs veh, C9orf123 / RFU, N4BP2L2 / Fold change vs veh, N4BP2L2 / RFU, ARFIP1 / Fold change vs veh, ARFIP1 / RFU, FAM179B / Fold change vs veh, FAM179B / RFU, BCL10 / Fold change vs veh, BCL10 / RFU, UHRF1BP1L / Fold change vs veh, UHRF1BP1L / RFU, BET1 / Fold change vs veh, BET1 / RFU, CNOT2 / Fold change vs veh, CNOT2 / RFU, ZNF268 / Fold change vs veh, ZNF268 / Fold change vs veh, ZNF507 / RFU, DGCR2 / Fold change vs veh, DGCR2 / RFU, WDSUB1 / Fold change vs veh, WDSUB1 / Fold change vs veh, HSP90B1 /// MIR3652 / RFU, ADSS / Fold change vs veh, ADSS / RFU, GK / Fold change vs veh, GK / RFU, ZNF148 / Fold change vs veh, ZNF148 / RFU, TAF9 / Fold change vs veh, TAF9 / RFU, SLC1A5 / Fold change vs veh, SLC1A5 / RFU, SLMO2 / Fold change vs veh, SLMO2 / RFU, ABCC4 / Fold change vs veh, ABCC4 / RFU, LOC101060439 /// RAP1B / Fold change vs veh, LOC101060439 /// RAP1B / RFU, RFX7 / Fold change vs veh, RFX7 / RFU, GTPBP10 / Fold change vs veh, GTPBP10 / RFU, CNEP1R1 / Fold change vs veh, CNEP1R1 / RFU, BIVM-ERCC5 /// ERCC5 / Fold change vs veh, BIVM-ERCC5 /// ERCC5 / RFU, ILF3 / Fold change vs veh, ILF3 / RFU 11762660_at / Fold change /veh 11762660_at / RFU VCAN (11757783_s_at) / Fold change /veh VCAN (11757783_s_at) / RFU DDX43 (11728927_at) / Fold change /veh DDX43 (11728927_at) / RFU KRT8 (11758188_x_at) / Fold change /veh KRT8 (11758188_x_at) / RFU NKD1 (11759106_at) / Fold change /veh NKD1 (11759106_at) / RFU SRD5A1 (11742802_a_at) / Fold change /veh SRD5A1 (11742802_a_at) / RFU TPSAB1 /// TPSB2 (11721975_s_at) / Fold change /veh TPSAB1 /// TPSB2 (11721975_s_at) / RFU GSTM3 (11746129_a_at) / Fold change /veh GSTM3 (11746129_a_at) / RFU IL23R (11737362_x_at) / Fold change /veh IL23R (11737362_x_at) / RFU TMEM51 (11727254_a_at) / Fold change /veh TMEM51 (11727254_a_at) / RFU PIWIL2 (11732686_x_at) / Fold change /veh PIWIL2 (11732686_x_at) / RFU ORM1 (11744905_x_at) / Fold change /veh ORM1 (11744905_x_at) / RFU CCDC152 (11743942_at) / Fold change /veh CCDC152 (11743942_at) / RFU ECM1 (11717891_a_at) / Fold change /veh ECM1 (11717891_a_at) / RFU IL23R (11748794_a_at) / Fold change /veh IL23R (11748794_a_at) / RFU TNFAIP8L3 (11732012_x_at) / Fold change /veh TNFAIP8L3 (11732012_x_at) / RFU MBOAT4 (11741988_at) / Fold change /veh MBOAT4 (11741988_at) / RFU 11764193_at / Fold change /veh 11764193_at / RFU TMEM53 (11763286_at) / Fold change /veh TMEM53 (11763286_at) / RFU MAGEB2 (11727129_at) / Fold change /veh MAGEB2 (11727129_at) / RFU TMEM200A (11744735_a_at) / Fold change /veh TMEM200A (11744735_a_at) / RFU CCDC152 (11751479_a_at) / Fold change /veh CCDC152 (11751479_a_at) / RFU FAM211A (11726209_a_at) / Fold change /veh FAM211A (11726209_a_at) / RFU RGS16 (11746705_a_at) / Fold change /veh RGS16 (11746705_a_at) / RFU VCAN (11755009_s_at) / Fold change /veh VCAN (11755009_s_at) / RFU RHOB (11743442_s_at) / Fold change /veh RHOB (11743442_s_at) / RFU RGS16 (11720943_a_at) / Fold change /veh RGS16 (11720943_a_at) / RFU RGS16 (11720944_at) / Fold change /veh RGS16 (11720944_at) / RFU, VPS4B / Fold change vs veh, VPS4B / RFU, CREB1 / Fold change vs veh, CREB1 / RFU, DNAJC13 / Fold change vs veh, DNAJC13 / RFU, GNAQ / Fold change vs veh, GNAQ / RFU, CDK5R1 / Fold change vs veh, CDK5R1 / RFU, ZRANB3 / Fold change vs veh, ZRANB3 / RFU, CUL4A / Fold change vs veh, CUL4A / RFU, CCNY / Fold change vs veh, CCNY / RFU, UFL1 / Fold change vs veh, UFL1 / RFU, COG3 / Fold change vs veh, COG3 / RFU, DIAPH2 / Fold change vs veh, DIAPH2 / RFU, SKA2 / Fold change vs veh, SKA2 / RFU, AFF3 / Fold change vs veh, AFF3 / RFU, LMF1 / Fold change vs veh, LMF1 / RFU, IPO11 / Fold change vs veh, IPO11 / RFU, DFFB / Fold change vs veh, DFFB / RFU, FOXP1 / Fold change vs veh, FOXP1 / RFU, CARD8 / Fold change vs veh, CARD8 / RFU, STRN3 / Fold change vs veh, STRN3 / RFU, ADK / Fold change vs veh, ADK / RFU, RASSF2 / Fold change vs veh, RASSF2 / RFU, WIPF1 / Fold change vs veh, WIPF1 / RFU, LARP1B / Fold change vs veh, LARP1B / RFU, RASA1 / Fold change vs veh, RASA1 / RFU, RB1 / Fold change vs veh, RB1 / RFU, PPFIA1 / Fold change vs veh, PPFIA1 / RFU, MAT2A / Fold change vs veh, MAT2A / RFU, CCT5 / Fold change vs veh, CCT5 / RFU, WDR92 / Fold change vs veh, WDR92 / RFU, CUX1 / Fold change vs veh, CUX1 / RFU, TTC7A / Fold change vs veh, TTC7A / RFU, TMEM135 / Fold change vs veh, TMEM135 / RFU, DEPTOR / Fold change vs veh, DEPTOR / RFU, CPM / Fold change vs veh, CPM / RFU, DNAJB6 / Fold change vs veh, DNAJB6 / RFU, CACNA2D3 / Fold change vs veh, CACNA2D3 / RFU, DTX4 / Fold change vs veh, DTX4 / RFU, TFCP2 / Fold change vs veh, TFCP2 / RFU, GMCL1 /// GMCL1P1 / Fold change vs veh, GMCL1 /// GMCL1P1 / RFU, AEBP2 / Fold change vs veh, AEBP2 / RFU, SNHG1 /// SNORD22 /// SNORD25 /// SNORD26 /// SNORD27 /// SNORD28 /// SNORD29 /// SNORD31 / Fold change vs veh, SNHG1 /// SNORD22 /// SNORD25 /// SNORD26 /// SNORD27 /// SNORD28 /// SNORD29 /// SNORD31 / Fold change (Aza/veh), C12orf56 (ProbeSet 11735607_a_at) / Fold change (ACY-1035/veh), C12orf56 (ProbeSet 11735607_a_at) / Fold change (Aza/veh), FGFR1OP (ProbeSet 11751329_s_at) / Fold change (ACY-1035/veh), FGFR1OP (ProbeSet 11751329_s_at) / Fold change (Aza/veh), VPS36 (ProbeSet 11739960_a_at) / Fold change (ACY-1035/veh), VPS36 (ProbeSet 11739960_a_at) / RFU SYPL1 (11715823_x_at) / Fold change /veh SYPL1 (11715823_x_at) / RFU IGFBP7 (11715501_s_at) / Fold change /veh IGFBP7 (11715501_s_at) / RFU REEP3 (11722064_at) / Fold change /veh REEP3 (11722064_at) / RFU IGLL1 (11728026_x_at) / Fold change /veh IGLL1 (11728026_x_at): dose or concentration left out as unconfirmed",
  "conditions": "ProbeSet 11747888_a_at; LIST D",
  "data": [
    {"smiles": "Nc1ncn([C@@H]2O[C@H](CO)[C@@H](O)[C@H]2O)c(=O)n1", "note": "[azacitidine]", "values": [
      {"measurement": "Fold change vs veh, SH3YL1", "value": 0.79}
    ]}
  ]
}
